Data as given in paper PMC11740726 (PNAS Nexus, 2025).
Several values for one entry are separate records, joined by “and”; a condition that tells them apart may be missing. Identical values can stand only once. Like-named read-outs stand apart in the source and are kept apart here.

Experiments:
[1] = system: SARS-CoV-2 Omicron BA.2.75; assay: microbe, parasite or virus in culture; format: cell-based; conditions: Severe acute respiratory syndrome coronavirus 2, read-out: Against SARS-CoV-2 variants EC50, Omicron BA.2.75
SARS-CoV-2^E166V-P14 [2] = format: cell-based; conditions: read-out: EC50, SARS-CoV-2^E166V-P14, VeroE6 +2μM CP-100356
SARS-CoV-2 Omicron BA.5 = assay: microbe, parasite or virus in culture; format: cell-based; conditions: Severe acute respiratory syndrome coronavirus 2, read-out: Against SARS-CoV-2 variants EC50, Omicron BA.5
[3] = system: six various Omicron variants (BA.5, BA.2.75, BQ.1.1, XBB, XBB.1.5, and EG.5.1); assay: microbe, parasite or virus in culture; format: cell-based, SARS-CoV-2; conditions: Severe acute respiratory syndrome coronavirus 2, read-out: EC50 values ranging over all six Omicron variants
SARS-CoV-2^BQ.1.1 = assay: microbe, parasite or virus in culture; format: cell-based; conditions: Severe acute respiratory syndrome coronavirus 2, read-out: Against SARS-CoV-2 variants EC50, Omicron BQ.1.1
[4] = system: SARS-CoV-2 Omicron XBB.1.5; assay: microbe, parasite or virus in culture; format: cell-based; conditions: Severe acute respiratory syndrome coronavirus 2, read-out: Against SARS-CoV-2 variants EC50, Omicron XBB.1.5
SARS-CoV-2 Omicron XBB = assay: microbe, parasite or virus in culture; format: cell-based; conditions: Severe acute respiratory syndrome coronavirus 2, read-out: Against SARS-CoV-2 variants EC50, Omicron XBB
[5] = system: SARS-CoV-2 Omicron EG.5.1; assay: microbe, parasite or virus in culture; format: cell-based; conditions: Severe acute respiratory syndrome coronavirus 2, read-out: Against SARS-CoV-2 variants EC50, Omicron EG.5.1
SARS-CoV-2^E166V-P14 [6] = format: cell-based; conditions: read-out: EC50, SARS-CoV-2^E166V-P14, HeLa^hACE2-TMPRSS2
rgSARS-CoV-2^WT = assay: microbe, parasite or virus in culture; format: cell-based; conditions: Severe acute respiratory syndrome coronavirus 2, Vero C1008, read-out: EC50, rgSARS-CoV-2^WT, VeroE6 +2μM CP-100356
rgSARS-CoV-2^E166V = format: cell-based, SARS-CoV-2; conditions: read-out: EC50, rgSARS-CoV-2^E166V, VeroE6 +2μM CP-100356

SMILES | EC50 [1] | EC50 (SARS-CoV-2^E166V-P14 [2]) | EC50 (SARS-CoV-2 Omicron BA.5) | EC50 [3] | EC50 (SARS-CoV-2^BQ.1.1) | EC50 [4] | EC50 (SARS-CoV-2 Omicron XBB) | EC50 [5] | EC50 (SARS-CoV-2^E166V-P14 [6]) | EC50 (rgSARS-CoV-2^WT) | EC50 (rgSARS-CoV-2^E166V)
Cn1cnc(Cn2c(=O)[nH]/c(=N\c3cc4cn(C)nc4cc3Cl)n(Cc3cc(F)c(F)cc3F)c2=O)n1 [Ensitrelvir, reference compound] | 140 ± 60 nM | 540 nM | 200 ± 40 nM | 60 to 220 nM | 70 ± 20 nM | 220 ± 90 nM | 60 ± 20 nM | 210 ± 90 nM |  |  | 
CC(C)(C)[C@H](NC(=O)C(F)(F)F)C(=O)N1C[C@H]2[C@@H]([C@H]1C(=O)N[C@H](C#N)C[C@@H]1CCNC1=O)C2(C)C [Nirmatrelvir, reference compound] | 300 ± 220 nM |  | 750 ± 220 nM | 20 to 750 nM | 50 ± 20 nM | 210 ± 280 nM |  | 130 ± 20 nM | 1420 nM | 26 ± 5 nM | 1300 nM
CC(C)(C)[C@H](NC(=O)C(F)(F)F)C(=O)N1C[C@H]2[C@@H]([C@H]1C(=O)N[C@@H](C[C@@H]1CCNC1=O)C(=O)c1nc3c(F)cccc3s1)C2(C)C [TKB245] | 27 ± 3 nM |  | 23 ± 9 nM | 6 to 38 nM |  | 35 ± 18 nM | 6 ± 3 nM | 9 ± 1 nM |  |  | 
CC(C)(C)[C@H](NC(=O)C(F)(F)F)C(=O)N1C[C@H]2[C@@H]([C@H]1C(=O)N[C@@H](C[C@@H]1CCNC1=O)C(=O)c1nc3cc(F)ccc3s1)C2(C)C [TKB272] | 6 ± 3 nM |  | 8 ± 1 nM | 3 to 8 nM | 3 ± 1 nM | 5 ± 2 nM | 3 ± 1 nM | 7 ± 1 nM | 51.3 nM and 51 nM | 3 nM | 22 nM
CC(C)C(=O)OC[C@H]1O[C@@H](n2ccc(NO)nc2=O)[C@H](O)[C@@H]1O [molnupiravir, reference compound] |  | 750 nM |  |  |  |  |  |  |  |  | 
